Test results: US20250262139A1, “POLYPEPTIDES AND METHODS FOR IMPROVING SKIN CONDITIONS” (INTERK PEPTIDE THERAPEUTICS LIMITED, priority 2020, published 2025)
Where no end group is shown, it is not given here.

Experiments:
Aquaporin 3 = Aquaporin 3 expression in keratinocytes exposed to HEV (blue) light; assay type: cell-based, human; details: NHEK exposed to HEV (blue) light; for increase in number of Aquaporin 3 positive cells: 470 nm, 3 days
Experimental: The ability of the polypeptide RSKAKNPLYRRRRRRRRR, to reverse HEV light (‘blue light”) induced damage to human keratinocytes was examined. In brief, Human Epidermal Keratinocytes (NHEK) which are representative of the epidermis were exposed to HEV light in the presence of the polypeptide RSKAKNPLYRRRRRRRRR, or untreated in the presence of the polypeptide RSKAKNPLYRRRRRRRRR.
The expression of Aquaporin 3 in cells (e.g. aquaporin 3 positive cells_was measured. Aquaporin 3 is found in the basolateral cell membrane and provides a pathway for water to exit cells. It is expressed in various tissues including the skin.
The experiment was carried out in quintuplicate in the following conditions (n=5): • Untreated NHEK • NHEK+IK14800 2,5 μM • NHEK+IK14800 5 μM • NHEK+IK14800 10 μM • NHEK+Blue light • NHEK+Blue light+IK14800 2.5 μM • NHEK+Blue light+IK14800 5 μM • NHEK+Blue light+IK14800 10 μM
Chronic blue light irradiation: one exposure per day for 3 days (220 joules—wavelength 470 nm). 4 days of treatment with the peptide (24 h before exposure to blue light and during the 3 days. The peptide was resuspended in milliQ water then diluted in the cell culture medium.
After treatment, the cells were washed and fixed with Formalin.
Finally, the nuclei were labelled with DAPI. The labelled proteins were observed and quantified by automated fluorescence microscopy Cellinsight CX7 High-Content Screening Platform (Thermofischer Data analysis
A statistical analysis was performed using Mann-Whitney by Prism software. The significance is correlated with the p-value: ns=no significant, […], **p-value<0.01, ***p-value<0.001.).

MMP1 = MMP1 immunohistochemical staining in UV-irradiated human skin explants; assay type: cell-based
Experimental: Human skin (2×human explant tissues) removed at elective surgery was cleaned, dissected and cut into pieces of approx. 5 mm×5 mm. Each piece was placed in a well of a 96 well plate, with individual plates prepared to assess the effects 3 hrs post treatment. Skin was subjected to UV-radiation from solar-simulated UV source for 1.5 h (UVR), or non-irradiation (SHAM), and treated immediately after with a vehicle control, Calcitriol (1 nM) or the polypeptide IK34720 (SEQ ID NO: 3) at concentrations of 50 μM, 250 μM or 500 μM. In FIG. 17, IK50, IK250 and IK500 as μM concentrations refers to 15 μg, 75 μg and 150 μg of IK34720 per 120 μL culture medium/explant, respectively.
Samples harvested at 3 hrs were fixed, sectioned, immunohistochemically stained for MMP1 and quantified for MMP1 expression, by expressing epidermal area stained for MMP1 as a function of total epidermal area examined.

Skh: hr1 hairless mice = experiment: 8-OHdG (8oxodG) immunohistochemistry in UV-irradiated mouse skin; assay type: in vivo; details: topical immediately after 3 MED UVR; IK34720 20, 100 or 200 μg, Calcitriol 11.4 pmol/cm2; biopsy 3 h post-UVR; vs vehicle
Experimental: 8-hydroxy-2′-deoxyguanosine or 8-oxo-7,8-dihydro-2′-deoxyguanosine (8-OHdG/8-oxodG) is one of the predominant forms of free radical-induced in oxidative lesions with the concentrations of 8-OHdG within a cell being a measurement of oxidative stress. The role of the polypeptide IK34720 (SEQ ID NO: 3) in UV-induced oxidative stress was assessed using the following protocol.
Female Skh: hr1 hairless mice were exposed to solar simulated UV-irradiation (UVR) by exposure to one fluorescent UVB tube (Philips TL40W 12R/S, Eindhoven, The Netherlands) in combination with 6 UVA tubes (Hitachi 40W F40T 10/BL, Tokyo, Japan). The UVA and UVB irradiation was filtered through a 0.125 mm cellulose acetate sheet (Grafix Plastics, Cleveland, OH) as previously described (Dixon K M et al., Biochem Mol Biol, 2007, 103 (3-5): 451-6). […]
Biopsies were taken from UV-irradiated dorsal skin 3 h post-UVR and fixed in Histochoice fixative (Amresco, Solon OH) for 6 h. […] Sections were subjected to routine hematoxylin and eosin staining for visualization of sunburn cells at 40× magnification, and the number of sunburn cells per linear millimetre of skin section recorded.
Levels of 8-oxo-2′-deoxyguanosine (8oxodG) indicative of oxidative stress were detected by immunohistochemistry and image analysis (Dixon K M et al., Cancer Prev Res 2011, 4 (9): 1485-94) as set out below. […]

primary keratinocytes = experiment: ATP levels, CellTiter-Glo 2.0 Assay, after ssUV; assay type: cell-based; details: 1.5 hours after UVR; compared with Calcitriol
Experimental: The influence of the polypeptide IK34720 (SEQ ID NO: 3) on intracellular ATP following UV exposure was assessed using the following protocol.
Primary keratinocytes were harvested as described above in Example 2 and were either exposed to ssUV-irradiation (UVR), as described above in Example 2 or not irradiated (SHAM), in the presence or absence of Calcitriol (positive control) or polypeptide IK34720 (SEQ ID NO: 3; RSKAKNPLYRRRRRRRRR), at the concentrations described in Example 2.
ATP levels were determined 1.5 hours after UVR using the CellTiter-Glo® 2.0 Assay (Promega, WI, USA) as described previously (Rybchyn et al., vide supra, 2017). All data in FIG. 4 is shown as mean+SD. *p<0.05, **p<0.01. Cells were prepared and irradiated as described above.

“RSKAKNPLYRRRRRRRRR (not fully specified (some residues)) [IK34720]” was tested, and the “increase in number of Aquaporin 3 positive cells” value (Aquaporin 3; 5 μM) was “+20%”, the “increase in number of Aquaporin 3 positive cells” value (Aquaporin 3; 10 μM) was “+27%” and the “basal expression of Aquaporin 3” value (Aquaporin 3; 2.5, 5, 10 μM) was “restores the basal expression of Aquaporin 3 in a dose dependent manner”. For the same sequence, the “percentage of MMP1 positive cells” value (MMP1; 500 μM, 3 hrs post irradiation) was “statistically significantly reduced”, the “cells staining for MMP-1” value (MMP1; 3 hrs post irradiation/treatment, Calcitriol 1 nM, IK34720 50, 250 or 500 μM) was “fewer stained cells” and the “8-OHdG formation in the skin” value (Skh: hr1 hairless mice) was “inhibits 8-OHdG formation”. The ATP levels (primary keratinocytes) was “enhanced the ATP levels”.
